The experiment deals with DGI-TAUP301L cells (ER stress induced by mutant TAU-P301L protein). The experiment in a line: ER stress reporter (KAR2 UPRE-GFP) screening assay in DGI-TAUP301L yeast cells; fluorescence normalised to cell density. Format: cell-based, Saccharomyces cerevisiae. The conditions noted are these: 2% galactose, 2 days at 30° C. The protocol:
Screening was conducted with a DGI-TAUP301L yeast cell expressing the mutant TAU-P301L protein under the control of GAL1 promoter and containing the ER stress sensor reporter plasmid with GFP as reporter, described above in the “Construction of the ER sensor reporter plasmid” section. […] The resulting fluorescent signal was normalised to cell density and the normalised fluorescence was used as a direct measure of ER stress level in the cells.
A commercial library containing 50 080 small molecules was screened along with 5 dipeptide molecules from an academic collaboration and 208 extracts from a proprietary natural extract collection. Active compounds, with the potential to modulate the deleterious effects of TAU-P301L expression, were identified by their ability to decrease normalised fluorescence, without influencing growth. Growth was determined by measuring optical density (OD) of a culture.
DGI-TAUP301L cells were dispensed into 96-well plates on minimum medium containing 2% galactose to fully express the mutant protein, together with 10 μM candidate compound. All liquid handing steps were performed using a Janus Automated Workstation (Perkin Elmer). Plates were incubated for 2 days at 30° C. under shaking in a Liconic STX40 Automated Incubator. Growth and fluorescence were monitored with a Victor 3V microplate reader (PE). […]
(§1) DGI-TAUP301L cells were pre-grown on a mixture of 2% galactose until reaching early exponential phase (OD=1-2). […] Growth and fluorescence were monitored for 2 days at 30° C. under agitation. […]
as §1, §1, §1

On to `C[S+](C)[O-]` [DMSO], for which the “reduction of ER stress” value (2% DMSO) was found to be 35%. Take `O=C(/C=C/c1ccccc1)NC(NC(=S)Nc1cccc2cccnc12)C(Cl)(Cl)Cl` (stereo not drawn) [salubrinal]: the “reduction of ER stress signal” value (100 μM salubrinal) is listed as around 50%. Consider `C[N+](C)(C)CCO` [Choline, choline], for which, where the note is “0.4 M choline”, the “reduction of ER stress” value is 35%.

These data come from patent US8236490B2, “Screening method for compounds that reduce ER stress” (EM Biotecnologia S.A., priority 2007, dated 2012).
